Test results reported in patent publication US10053468B2, “Heterocyclic compound” (TAKEDA PHARMACEUTICAL COMPANY LIMITED, priority 2013, dated 2018).
Read-outs that look alike come from different tables or passages of the source.

Key:
RORγt [1] = target: T1, RORγt (Homo sapiens, UniProt P51449); assay: RORγt binding test using fluorescent-labeled synthetic ligand (TR-FRET); settings: read-out: Binding inhibitory rate of fluorescent-labeled synthetic ligand to RORγt at test compound 1 μM (%)
T1 sequence (P51449 1-497 isoform P51449-2): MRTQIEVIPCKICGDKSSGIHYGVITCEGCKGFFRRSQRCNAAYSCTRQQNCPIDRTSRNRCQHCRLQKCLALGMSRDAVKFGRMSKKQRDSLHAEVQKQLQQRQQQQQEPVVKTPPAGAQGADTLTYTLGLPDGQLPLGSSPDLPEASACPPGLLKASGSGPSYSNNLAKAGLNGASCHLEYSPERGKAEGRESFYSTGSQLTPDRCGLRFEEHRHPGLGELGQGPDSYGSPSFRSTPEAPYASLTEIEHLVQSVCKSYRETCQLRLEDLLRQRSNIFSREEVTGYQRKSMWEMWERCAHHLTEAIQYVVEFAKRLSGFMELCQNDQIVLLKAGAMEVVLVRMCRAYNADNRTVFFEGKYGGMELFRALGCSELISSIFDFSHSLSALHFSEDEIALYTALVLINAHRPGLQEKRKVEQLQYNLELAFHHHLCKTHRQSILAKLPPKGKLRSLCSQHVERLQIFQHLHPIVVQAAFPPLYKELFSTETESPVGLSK
Summary of the method: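 His-tagged RORγt (diluted to 240 nM) with compound, then fluorescent synthetic ligand (diluted to 12 μM), 20 min at room temperature, followed by Tb anti-His antibody (diluted to 8 nM), 20 min.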

RORγt [2] = target: T1, RORγt; assay: RORγt binding test using fluorescent-labeled cholesterol (TR-FRET); settings: read-out: Binding inhibitory rate of fluorescent-labeled cholesterol to RORγt at test compound 1 μM (%)
Summary of the method: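 After 20 min at room temperature with His-tagged RORγt and BODIPY-cholesterol in pH 7.5 Tris buffer (NaCl, DTT, BSA), compound wells got terbium anti-His antibody for another 20 min. Time-resolved FRET was read with excitation 320 nm, emission 520 nm and a 100 µs delay.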

RORγt [3] = target: T1, RORγt; assay: Jurkat reporter test (human IL-17 ROR response element luciferase, RORγt vector); assay type: cell-based; settings: read-out: Luminescence level inhibitory rate at test compound 3 μM (%)
Summary of the method: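 Luminescence (Bright-Glo, 10 min, RT) was measured after overnight compound treatment of electroporated Jurkat cells (1350 V, 10 ms interval, 3 pulses). The reaction medium was RPMI with 10% lipid-reduced FCS, 10 mM HEPES (pH 7.5) and 5 μM lovastatin.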

RORγt [4] = target: T1, RORγt; assay: Cofactor recruitment test (Alpha Screen, biotinylated SRC-1 peptide); assay type: biochemical; settings: read-out: Signal value inhibitory rate at test compound 1 μM (%)
Protocol: Cofactor Recruitment Test
Cofactor recruitment test was performed by Alpha Screen (Histidine Detection Kit, PerkinElmer) method. First, a test compound was diluted with an assay buffer (50 mM Tris-HCl (pH 7.5), 50 mM KCl, 1 mM DTT, 0.1% BSA) and added to a 384 well plate by 5 μL. […] The mixture was stood in a dark place for 1 hr, and the signal value was measured by Envision (PerkinElmer).

IL-17A gene expression = assay: Effect on IL-23-induced cytokine expression in mice; assay type: in vivo, Balb/c mice; settings: Mus musculus, 30 min before and 8 hr after IL-23, versus the negative control group, read-out: Percent inhibition of IL-17A gene expression; for inhibition in vivo at 10 mg/kg: dose 10 mg/kg oral; for inhibition in vivo at 30 mg/kg: dose 30 mg/kg oral
Protocol: Effect on IL-23-induced Cytokine Expression in Mice
A mouse IL-23 solution (500 ng/10 μL, prepared by Takeda Pharmaceutical Company Limited) or PBS (10 μL, negative control group) was administered intradermally in the ear of Balb/c mice (Charles River Japan, male, 7 weeks old). Twenty-four hr after administration, the ear was resected under isoflurane anesthesia. The test compound was suspended in 0.5% methylcellulose and administered orally 30 min before and 8 hr after IL-23 administration.
RNA extraction from the ear tissue and quantitative PCR were performed as follows. Specifically, ear tissue 5 mm in diameter was punched from an area of the resected ear centering on the IL-23 injection site, and the tissue was immersed in RNAlater (QIAGEN) for at least 18 hr. The RNAlater-treated ear tissue was homogenized in 350 μL of RLT buffer (RNeasy mini kit, QIAGEN) and treated (55° C., 10 min) with Proteinase K (QIAGEN). Total RNA was then extracted according to the RNeasy mini kit protocol. The RNA thus obtained was then reverse transcribed into cDNA using the High-Capacity RNA-to-cDNA kit (Applied Biosystems), and the amount of each cytokine expressions was measured by real-time PCR (Viia7™, Applied Biosystems). The PCR buffer used was TaqMan Fast Advanced Master Mix (Applied Biosystems), and TaqMan Gene Expression Assays (Applied Biosystems) Mm00439618 ml (IL-17A) and 4352341E (β-actin) were used for cytokine gene detection. The IL-17A gene expression level was normalized to the R-actin gene expression level, and the percent inhibition of IL-17A gene expression with the test compound was then calculated.
The results obtained with the above-described method (percent inhibition of IL-17A gene expression with oral administration of the test compound) are shown in Table 5.

[5] = system: IL-17 production in human blood; assay: Effect on IL-17 production in human blood; assay type: cell-based; settings: 72 h, 10 μM test compound, IL-23 and Dynabeads stimulation, 3 days, read-out: Percent Inhibition at 10 μM (IL-17 production)
Protocol: Effect on IL-17 Production in Human Blood
The inhibitory effect of the test compound on IL-17 production in human blood was evaluated as follows. First, 150 μL of peripheral blood collected from healthy individuals using heparinized vacuum blood collection tubes was dispensed into each well of a 96-well plate (Corning), and 45 μL of RPMI 1640 medium (Gibco) containing 10% fetal bovine serum (FBS, Hyclone) and 30 μL of the test compound diluted with the medium was added to each well. The plate was then cultured for 30 min at 37° C. Cells were subsequently stimulated by adding 30 μL of 100 ng/mL human IL-23 (R&D) and 45 μL of Dynabeads Human (Invitrogen) to each well and culturing the plate for 3 days at 37° C. In wells without stimulation, 75 μL of RPMI 1640 medium containing 10% FBS was added instead of the IL-23 and Dynabeads solution. After culturing for 3 days, the culture supernatant was collected, and the amount of IL-17 in the supernatant was measured using an IL-17 ELISA kit (R&D).
The results of the above-described measurements (percent inhibition of IL-17 production with 10 μM of the test compound) are shown in Table 4.

[6] = test compound 3 μM, Jurkat cells

Row | inhibition at 1 µM (RORγt [1]) [%] | inhibition at 1 µM (RORγt [2]) [%] | inhibition at 3 µM (RORγt [3]; [6]) [%] | inhibition at 1 µM (RORγt [4]) [%] | SMILES | inhibition at 10 µM [5] [%] | inhibition in vivo at 10 mg/kg (IL-17A gene expression) [%] | inhibition in vivo at 30 mg/kg (IL-17A gene expression) [%] | other results
1 | 101 | 103 | 99 | 73 | COc1ccc2c(c1)CCN(C(=O)c1cc(O)no1)[C@H]2C(=O)Nc1cc(F)c2c(c1)CCC2(C)C [Example 68, (1R)-N-(7-fluoro-1,1-dimethyl-2,3-dihydro-1H-inden-5-yl)-2-((3-hydroxy-1,2-oxazol-5-yl)carbonyl)-6-methoxy-1,2,3,4-tetrahydroisoquinoline-1-carboxamide] | – | – | – | inhibition in vivo at 100 mg/kg (IL-17A gene expression; dose 100 mg/kg oral): 90%
2 | – | – | – | – | COc1ccc2c(c1)CCN(C(=O)CCCC(=O)O)[C@H]2C(=O)Nc1cc(F)c([Si](C)(C)C)c(F)c1 [Example 82, 5-((1R)-1-((3,5-difluoro-4-(trimethylsilyl)phenyl)carbamoyl)-6-methoxy-3,4-dihydroisoquinolin-2(1H)-yl)-5-oxopentanoic acid] | 75 | 85 | – | –
3 | – | – | – | – | COc1ccc2c(c1)CCN(C(=O)CCCC(=O)O)[C@H]2C(=O)Nc1cc(F)c(C(C)(C)C)c(F)c1 [Example 109, 5-((1R)-1-((4-tert-butyl-3,5-difluorophenyl)carbamoyl)-6-methoxy-3,4-dihydroisoquinolin-2(1H)-yl)-5-oxopentanoic acid] | – | – | 96 | –
4 | – | – | – | – | COc1ccc2c(n1)CCN(C(=O)CCCC(=O)O)[C@H]2C(=O)Nc1cc(F)c([Si](C)(C)C)c(F)c1 [Example 125, 5-((5R)-5-((3,5-difluoro-4-(trimethylsilyl)phenyl)carbamoyl)-2-methoxy-7,8-dihydro-1,6-naphthyridin-6(5H)-yl)-5-oxopentanoic acid] | – | – | 89 | –
5 | 101 | 101 | 101 | 97 | COCc1ccc2c(c1)CCN(C(=O)CCCC(=O)O)[C@H]2C(=O)Nc1cc(F)c(C(C)(C)C)c(F)c1 [Example 144, 5-((1R)-1-((4-tert-butyl-3,5-difluorophenyl)carbamoyl)-6-(methoxymethyl)-3,4-dihydroisoquinolin-2 (1H)-yl)-5-oxopentanoic acid] | 86 | – | – | –
6 | 101 | 100 | 96 | 82 | CCOCC(C)(C)c1c(F)cc(NC(=O)[C@H]2c3ccc(OC)cc3CCN2C(=O)c2cc(O)no2)cc1F [Example 171, (1R)-N-(4-(1-ethoxy-2-methylpropan-2-yl)-3,5-difluorophenyl)-2-((3-hydroxy-1,2-oxazol-5-yl)carbonyl)-6-methoxy-1,2,3,4-tetrahydroisoquinoline-1-carboxamide] | – | – | – | –
7 | 101 | 101 | 97 | 82 | CCOCC(C)(C)c1c(F)cc(NC(=O)[C@H]2c3ccc(OC)cc3CCN2C(=O)CCCC(=O)O)cc1F [Example 172, 5-((1R)-1-((4-(1-ethoxy-2-methylpropan-2-yl)-3,5-difluorophenyl)carbamoyl)-6-methoxy-3,4-dihydroisoquinolin-2(1H)-yl)-5-oxopentanoic acid] | – | – | – | –
8 | – | – | – | – | COc1ccc2c(c1)CCN(C(=O)CCCC(=O)O)[C@H]2C(=O)Nc1cc(F)c2c(c1)CCC2(C)C [Example 176, 5-((1R)-1-((7-fluoro-1,1-dimethyl-2,3-dihydro-1H-inden-5-yl)carbamoyl)-6-methoxy-3,4-dihydroisoquinolin-2 (1H)-yl)-5-oxopentanoic acid] | – | – | 91 | –
9 | – | – | – | – | CCOc1ccc2c(c1)CCN(C(=O)CC[C@H](C)C(=O)O)[C@H]2C(=O)Nc1cc(F)c2c(c1)CCC2(C)C [Example 266, (2S)-5-((1R)-6-ethoxy-1-((7-fluoro-1,1-dimethyl-2,3-dihydro-1H-inden-5-yl)carbamoyl)-3,4-dihydroisoquinolin-2(1H)-yl)-2-methyl-5-oxopentanoic acid] | 88 | – | – | –
10 | – | – | – | – | COc1ccc2c(n1)CCN(C(=O)N1CC(CC(=O)O)C1)[C@H]2C(=O)Nc1cc(F)c2c(c1)CCC2(C)C [Example 273, (1-(((5R)-5-((7-fluoro-1,1-dimethyl-2,3-dihydro-1H-inden-5-yl)carbamoyl)-2-methoxy-7,8-dihydro-1,6-naphthyridin-6(5H)-yl)carbonyl)azetidin-3-yl)acetic acid] | 89 | 77 | – | –

Row | SMILES | inhibition at 1 µM (RORγt [1]) [%] | inhibition at 1 µM (RORγt [2]) [%] | inhibition at 3 µM (RORγt [3]; [6]) [%] | inhibition at 1 µM (RORγt [4]) [%] | inhibition at 10 µM [5] [%] | inhibition in vivo at 10 mg/kg (IL-17A gene expression) [%] | inhibition in vivo at 30 mg/kg (IL-17A gene expression) [%] | other results
11 | COc1ccc2c(c1)CCN(C(=O)CCCC(=O)O)[C@H]2C(=O)Nc1ccc([Si](C)(C)C)c(F)c1 [Example 135, 5-((1R)-1-((3-fluoro-4-(trimethylsilyl)phenyl)carbamoyl)-6-methoxy-3,4-dihydroisoquinolin-2(1H)-yl)-5-oxopentanoic acid] | 101 | 102 | – | 97 | – | – | 68 | inhibition at 3 µM (RORγt [3]; Jurkat): 104%
12 | COc1ccc2c(c1)CCN(C(=O)N1CC(CC(=O)O)C1)[C@H]2C(=O)Nc1ccc([Si](C)(C)C)c(F)c1 [Example 279, (1-(((1R)-1-((3-fluoro-4-(trimethylsilyl)phenyl)carbamoyl)-6-methoxy-3,4-dihydroisoquinolin-2(1H)-yl)carbonyl)azetidin-3-yl)acetic acid] | 102 | – | – | 89 | – | 71 | – | inhibition at 3 µM (RORγt [3]; Jurkat): 100%
13 | COc1ccc2c(n1)CCN(C(=O)N1CC(CC(=O)O)C1)[C@H]2C(=O)Nc1cc(F)c([Si](C)(C)C)c(F)c1 [Example 281, (1-(((5R)-5-((3,5-difluoro-4-(trimethylsilyl)phenyl)carbamoyl)-2-methoxy-7,8-dihydro-1,6-naphthyridin-6(5H)-yl)carbonyl)azetidin-3-yl)acetic acid] | 102 | – | – | 89 | – | 93 | – | inhibition at 3 µM (RORγt [3]; Jurkat): 102%
